Experimental data published in the OPERA property sets (Mansouri et al. 2018).

CN1Cc2c(ccc3c2OCO3)[C@@H]2[C@H]1c1cc3c(cc1C[C@@H]2O)OCO3
melting point: 136 °C

O=C(O)c1cc(Cl)cc(Cl)c1O
melting point: 220 °C

CCC(=O)Oc1ccccc1
boiling point: 211 °C | melting point: 20 °C

O=C(Cl)C(Cl)(Cl)Cl
boiling point: 118 °C | log10 Henry constant (atm·m³/mol): -3.29 | log10 vapour pressure (mmHg): 1.33

Cc1cc2c(cc1C)C(=O)c1ccccc1C2=O
melting point: 211 °C

CCC(C)C(C)C(C)CC (configuration not stated)
boiling point: 162 °C

O=C1c2ccccc2C(=O)c2c(NCCO)cccc21
log10 vapour pressure (mmHg): -11 | melting point: 168 °C

Nc1cc(N2CCCCC2)nc(N)[n+]1[O-]
melting point: 248 °C

COc1ccc(C(=O)c2ccccc2O)c(O)c1
melting point: 68 °C

CCCI
boiling point: 103 °C | log10 vapour pressure (mmHg): 1.63 | melting point: -101 °C

CCNc1ccccc1C
boiling point: 216 °C

C[C@@H]1CC[C@H](O)C1
boiling point: 148 °C

O=C(O)CSc1ncccn1
ready biodegradability: readily biodegradable

CCOP(=O)(NC(C)C)Oc1ccc(S(C)=O)c(C)c1 (configuration not stated)
log10 Koc (L/kg): 1.57

Nc1ccc2ncsc2c1
melting point: 87 °C

c1ccc2c(c1)Cc1ccccc1C2
boiling point: 305 °C | melting point: 111 °C

CC(C)(C)N=C=O
melting point: 85.5 °C

Cc1ccnc(N)n1
melting point: 160 °C

Cn1ccc2ccccc21
boiling point: 237 °C

C=CC1(C)OC(=O)N(c2cc(Cl)cc(Cl)c2)C1=O (configuration not stated)
log10 Koc (L/kg): 2.7 | log10 vapour pressure (mmHg): -6.92 | melting point: 108 °C

CC(Br)C(Br)CBr (configuration not stated)
boiling point: 220 °C | melting point: -19 °C

CC(=O)Oc1ccc(C2(c3ccc(OC(C)=O)cc3)Oc3ccccc3NC2=O)cc1
melting point: 190 °C

CCc1ccccc1Br
boiling point: 199 °C | melting point: -67.9 °C

NC1CC1
boiling point: 50.5 °C | melting point: -35.4 °C

O=Cc1ccc(Br)o1
boiling point: 201 °C

COc1ccc(C(C)=O)cc1OC
boiling point: 287 °C | melting point: 51 °C

CC(C)OC(OC(C)C)OC(C)C
boiling point: 167 °C

C[C@H]1CC[C@@]2(O)C(C)(C)[C@@H]3CC[C@@]2(C)[C@H]1C3
melting point: 56 °C

CC1(C)OC(c2ccco2)CN1C(=O)C(Cl)Cl (configuration not stated)
log10 vapour pressure (mmHg): -7.31 | melting point: 97 °C

CC1(O)CCCC1
boiling point: 136 °C | melting point: 36 °C

CC=C[C@H](O)CCCC
boiling point: 175 °C

C=C(CC(=O)OC)C(=O)OC
boiling point: 208 °C | melting point: 38 °C

C=COCCO
boiling point: 142 °C

C=CCCCCCCCC
boiling point: 170 °C | log10 vapour pressure (mmHg): 0.223 | melting point: -66.3 °C | log10 biotransformation half-life (days) (fish): 0.65

Cc1cc2ccccc2n1C
melting point: 56.5 °C

COc1cc(CCC(C)=O)ccc1O
melting point: 40.5 °C

CCOC(=O)CBr
boiling point: 168 °C

Cc1c(O)cccc1Cl
boiling point: 225 °C | melting point: 86 °C

CC(Cl)C[N+](=O)[O-] (configuration not stated)
boiling point: 172 °C

COc1cccc(OC)c1O
boiling point: 261 °C | log10 Henry constant (atm·m³/mol): -6.64 | melting point: 56.5 °C

COc1cc(NCc2ccc3nc(N)nc(N)c3c2C)cc(OC)c1OC
melting point: 216 °C

CC(C)(CO)Cc1ccccc1
melting point: 34.5 °C

ClC(Cl)(Cl)c1ccc(C(Cl)(Cl)Cl)cc1
melting point: 109 °C

O=[N+]([O-])c1ccc(Oc2ccc(C(F)(F)F)cc2[N+](=O)[O-])cc1
melting point: 94 °C

CC(=O)OC(OC(C)=O)c1ccc([N+](=O)[O-])o1
melting point: 91 °C

CC(=O)c1cccc(C#N)c1
melting point: 99 °C

C=C(CC)CCCC
boiling point: 120 °C | log10 vapour pressure (mmHg): 1.29

CCCCOCCOCCO
boiling point: 231 °C | log10 Henry constant (atm·m³/mol): -8.14 | log10 vapour pressure (mmHg): -1.66 | melting point: -68 °C | ready biodegradability: readily biodegradable

COc1cc(C)ccc1C
boiling point: 194 °C

O=C(O)C(F)(F)C(F)(F)C(F)(F)C(F)(F)C(F)(F)C(F)F
boiling point: 192 °C | melting point: 34 °C

Cc1ccc(C)c2ncccc12
boiling point: 266 °C | melting point: 4.5 °C

Cn1c(=O)c2c(ncn2CC(O)CO)n(C)c1=O (configuration not stated)
melting point: 162 °C

c1ccc2sccc2c1
boiling point: 221 °C | log10 Koc (L/kg): 3.48 | log10 biodegradation half-life (days): 1.4 | log10 vapour pressure (mmHg): -0.624 | melting point: 32 °C

CC[C@H]1C[N@@]2CC[C@H]1C[C@@H]2[C@@H](O)c1ccnc2ccccc12
melting point: 268 °C

CCOC(CC)(OCC)OCC
boiling point: 171 °C

COC(=O)c1cc2ccccc2cc1O
melting point: 75.5 °C

CCC(C)c1ccc(N)cc1 (configuration not stated)
boiling point: 238 °C

Brc1cccc2ccccc12
boiling point: 281 °C | log10 vapour pressure (mmHg): -2.01 | melting point: -1.8 °C

Nc1ccc(Cl)c([N+](=O)[O-])c1
melting point: 103 °C

O=C(Cl)c1ccc(Br)cc1
boiling point: 246 °C | melting point: 42 °C

C/C=C/C/C=C/CCC(=O)[C@H]1O[C@H]1C(N)=O
melting point: 93.5 °C

Cc1ccc2ccc3ccc(C)cc3c2c1
melting point: 145 °C

CC(CO)(CO)[N+](=O)[O-]
melting point: 150 °C

Cc1cccc(NC=O)c1
boiling point: 290 °C

C[C@@H](Cc1ccccc1)NCCC(c1ccccc1)c1ccccc1
melting point: 36.5 °C

CC1(C)CCC(Cc2ccc(Cl)cc2)C1(O)Cn1cncn1 (configuration not stated)
log10 vapour pressure (mmHg): -7.03 | melting point: 112 °C | log10 biotransformation half-life (days) (fish): 0.23

Fc1c(F)c(F)c(S)c(F)c1F
boiling point: 143 °C | melting point: -24 °C

CCCCCCCC(=O)Cl
boiling point: 196 °C | melting point: -63 °C

FC(F)(F)C(Cl)Cl
boiling point: 27 °C | log10 Henry constant (atm·m³/mol): -1.59 | log10 vapour pressure (mmHg): 2.86 | melting point: -107 °C | ready biodegradability: not readily biodegradable

O=C(O)CNCP(=O)(O)O
log10 Koc (L/kg): 3.32 | melting point: 190 °C

CC(=O)C(=O)CC(C)C
boiling point: 138 °C

Clc1cc(Cl)c(-c2cc(Cl)c(Cl)c(Cl)c2Cl)c(Cl)c1
log10 biotransformation half-life (days) (fish): 2.51

CC(C)C(C)CC(C)(C)C (configuration not stated)
boiling point: 148 °C | log10 vapour pressure (mmHg): 0.779

CCCC[C@@H](O)CC
log10 vapour pressure (mmHg): -0.131

O=C1c2ccccc2-c2c(O)cccc21
melting point: 250 °C

CC(C)CCN(CCC(C)C)CCC(C)C
boiling point: 235 °C

CCNc1ccc(C)cc1
boiling point: 217 °C | ready biodegradability: not readily biodegradable | log10 BCF (fish): 0.61

CCSC#N
boiling point: 146 °C | melting point: -85.5 °C

O=C1CCCCCCCCC1O (configuration not stated)
melting point: 42 °C

c1ccc(C(c2ccccc2)(c2ccccc2)N2CCOCC2)cc1
melting point: 175 °C

O=C=Nc1cccc(Cl)c1
log10 vapour pressure (mmHg): -0.712 | melting point: -4 °C

CN(C)N=Nc1nc[nH]c1C(N)=O
melting point: 205 °C

COC(=O)c1ccccc1OC
boiling point: 246 °C

FC(F)(F)C(F)(F)F
boiling point: -78.1 °C | log10 Henry constant (atm·m³/mol): 1.31 | log10 vapour pressure (mmHg): 4.4 | melting point: -101 °C

Clc1ccc(Cl)c2c(Cl)cccc12
log10 Koa: 7.56

Cc1ccc2c(c1)CC=C2
boiling point: 207 °C

CC1CC(OC(=O)C(O)c2ccccc2)CC(C)(C)C1 (configuration not stated)
melting point: 56 °C

O=C(NC(Cc1ccccc1)c1ccccc1)c1cccnc1 (configuration not stated)
melting point: 159 °C

O=C(O)c1ccc(Br)cc1
log10 vapour pressure (mmHg): -5 | melting point: 254 °C

O=C(OCC(O)CO)c1ccccc1Nc1ccnc2cc(Cl)ccc12 (configuration not stated)
melting point: 170 °C

CCNC(=O)COC(=O)c1ccccc1
melting point: 106 °C

C=C=C(C)C
boiling point: 40.8 °C | log10 vapour pressure (mmHg): 2.63 | melting point: -114 °C

COc1cc([N+](=O)[O-])ccc1N
melting point: 141 °C | ready biodegradability: not readily biodegradable

Cc1cccc(I)c1
boiling point: 213 °C | melting point: -27.2 °C
